Reference: patent US10780074B2, “Compounds and uses thereof” (Sunovion Pharmaceuticals Inc., priority 2017, dated 2020)
Structures can show the parent of a compound that is named as a salt.

System: behaviors of compound-treated mice
Test: Neuropharmacological Assay (SmartCube)
Assay type: in vivo
Conditions: for minimal effective dose: Mus musculus, ip, 0.25 h, dose having 50% or more total activity in SmartCube, i.p., read-out: MED (minimal effective dose); for AD: ADHD (probability that activity matches class) / AG: analgesic (probability that activity matches class) / AX: anxiolytic (probability that activity matches class) / CE: cognitive enhancer (probability that activity matches class) / DP: anti-depressant (probability that activity matches class) / MS: mood stabilizer (probability that activity matches class) / PS: anti-psychotic (probability that activity matches class) / SD: sedative hypnotic (probability that activity matches class) / UN: uncharacterized CNS activity (probability that activity matches class): i.p. 15 min before behavioral test, most efficacious dose(s) of 3 doses
Method in brief: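 Mice dosed i.p. 15 min before testing, with compound in N-methyl-2-pyrrolidone/PEG/propylene glycol, were video-recorded and algorithmically compared with reference-drug behavioral signatures. This gave class-match probabilities (antidepressant, anxiolytic, etc.) at the most efficacious of 3 doses. MED was defined as the dose with ≥50% total activity, usually tested across 0.3–30 mpk.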

| Compound | minimal effective dose [mg/kg] | AD: ADHD (probability that activity matches class) | AG: analgesic (probability that activity matches class) | AX: anxiolytic (probability that activity matches class) | CE: cognitive enhancer (probability that activity matches class) | DP: anti-depressant (probability that activity matches class) | MS: mood stabilizer (probability that activity matches class) | PS: anti-psychotic (probability that activity matches class) | SD: sedative hypnotic (probability that activity matches class) | UN: uncharacterized CNS activity (probability that activity matches class) |
| --- | --- | --- | --- | --- | --- | --- | --- | --- | --- | --- |
| NC[C@H]1OCCc2c(-c3ccnnc3)cccc21 (single isomer, unassigned) [Compound 79, hydrochloride salt] | 3 to 10 | + (LOQ ≤ + <5%) | + (LOQ ≤ + <5%) | + (LOQ ≤ + <5%) | + (LOQ ≤ + <5%) | ++ (5% ≤ ++ <25%) | + (LOQ ≤ + <5%) | + (LOQ ≤ + <5%) | + (LOQ ≤ + <5%) | + (LOQ ≤ + <5%) |
| NCC1OCCc2c(-c3cnccn3)cccc21 (centres unmarked) [Compound 63, (5-(Pyrazin-2-yl)isochroman-1-yl)methanamine hydrochloride salt] | 3 to 10 | ++ (5% ≤ ++ <25%) | + (LOQ ≤ + <5%) | ++ (5% ≤ ++ <25%) | + (LOQ ≤ + <5%) | ++++ (50% ≤ ++++) | + (LOQ ≤ + <5%) | + (LOQ ≤ + <5%) | + (LOQ ≤ + <5%) | + (LOQ ≤ + <5%) |
| CNC[C@H]1OCCc2c(-c3c[nH]cn3)cccc21 (single isomer, unassigned) [Compound 115, hydrochloride salt] | 10 to 30 | + (LOQ ≤ + <5%) | + (LOQ ≤ + <5%) | ++ (5% ≤ ++ <25%) | + (LOQ ≤ + <5%) | + (LOQ ≤ + <5%) | + (LOQ ≤ + <5%) | + (LOQ ≤ + <5%) | + (LOQ ≤ + <5%) | + (LOQ ≤ + <5%) |
| NC[C@H]1OCCc2cc(-c3cccnc3)ccc21 [Compound 14, hydrochloride salt] | 3 to 10 | + (LOQ ≤ + <5%) | ++ (5% ≤ ++ <25%) | ++ (5% ≤ ++ <25%) | + (LOQ ≤ + <5%) | ++++ (50% ≤ ++++) | + (LOQ ≤ + <5%) | + (LOQ ≤ + <5%) | + (LOQ ≤ + <5%) | ++ (5% ≤ ++ <25%) |
| NC[C@H]1OCCc2c(-c3c[nH]cn3)cccc21 (single isomer, unassigned) [Compound 113, hydrochloride salt] | 3 to 10 | + (LOQ ≤ + <5%) | ++ (5% ≤ ++ <25%) | ++ (5% ≤ ++ <25%) | + (LOQ ≤ + <5%) | ++ (5% ≤ ++ <25%) | + (LOQ ≤ + <5%) | +++ (25% ≤ +++ <50%) | + (LOQ ≤ + <5%) | +++ (25% ≤ +++ <50%) |
